Test system: HBsAg in HBV-infected PHH
Assay: Cryopreserved primary human hepatocytes (PHH) HBV infection assay, extracellular HBsAg (CLIA)
Type: cell-based
Settings: Hepatitis B virus, Hepatocyte, 216 h, read-out: HBsAg IC50, Cryopreserved PHH infected with HBV, 9 days post-compound treatment, extracellular HBsAg
Procedure, shortened: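 Cryopreserved PHH were infected with 5.8×10^6 HBV genome equivalents in medium with 4% PEG8000 and 1% DMSO. After 9 days of treatment, extracellular HBsAg was measured by CLIA, and IC50 was derived from a 4-parameter logistic fit.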

Q: For `O=c1cc(-c2ccc(Br)cc2OCCO[C@H]2C[C@@H](C(=O)O)C2)oc2c(Cl)cccc12` [Example C003-A, Cis-3-[2-[5-bromo-2-(8-chloro-4-oxo-chromen-2-yl)phenoxy]ethoxy]cyclobutanecarboxylic acid], which IC50 is on record?
A: Its IC50 is 8.77 µM.

Reference: US11708344B2, “Flavone derivatives for the treatment and prophylaxis of hepatitis B virus disease” (Hoffmann-La Roche Inc., priority 2018, dated 2023)
